Key:
[1] = system: Smad1/5/8 signaling pathway; assay: Growth factor receptor activation: quantification of western blots of phospho-Smad1/5/8; assay type: cell-based; settings: human osteosarcoma cells MG63; 400 ng/mL GFR-binding compound; Table 4
Experimental: After 24 hours of culture, cells were permeabilized (10% SDS, 25 mM NaCl, 10 nM pepstatin and 10 nM leupeptin in distilled water and loading buffer), boiled for 10 minutes and resolved by reducing PAGE (Invitrogen). Proteins were transferred onto nitrocellulose, blocked, and labeled with HRP-conjugated antibodies (Invitrogen). Integrin αv, α5, α3, α4, β1, β, β5 and […] were blotted by treating the nitrocellulose with monoclonal anti-integrin (extracellular domain) αv, α5, α3, α4, β1, β3, β5 and β6 antibodies (Santa Cruz Biotechnology). Phosphor-Smad1/5/8 was blotted by treating the nitrocellulose with monoclonal anti-p-Smad1/5/8 (Santa Cruz Biotechnology). For all of the experiments the western blot was performed in triplicate, along with an additional blot for actin and coomassie blue staining to ensure constant protein load among samples.

[2] = system: human osteosarcoma cells, MG63; assay: Tumor cell recoding via quantification of pRB (immunofluorescence, ImageJ); assay type: cell-based
Experimental: The cells were first fixed for 20 min with 4% paraformaldehyde/PBS at 4° C. After fixation, the cells were permeabilized in PBS containing 1% Triton X-100 for 15 min. Protein immunofluorescent visualization was performed by first treating the cells with 1% (v/v) specific monoclonal antibodies for 1 hour at 37° C. Then the samples were incubated with Alexa Fluor® 568 or 647 (F(ab′)2 fragment of IgG(H+L)) during 30 min at room temperature. The cell nuclei were counterstained in 20 ng/mL DAPI for 10 min at room temperature.
For this type of quantification the freeware image analysis ImageJ® software was used. The raw image was first converted to an 8-bit file, and then the unsharp mask feature was used (settings 1:0.2) to remove the image background (rolling ball radius 10). After smoothing, the resulting image, which appears similar to the original photomicrograph but with minimal background, was then converted to a binary image by setting a threshold. Threshold values were determined empirically by selecting a setting, which gave the most accurate binary image for a subset of randomly selected photomicrographs. The cell area was determined by manual delineation on raw fluorescent images. Total contact area and mean contact area per cell were calculated by “analyse particules” in ImageJ®. A minimum of 50 cells per condition were analyzed.
Neoplastic cells (in this example osteosarcoma cells) were cultured on pharmaceutical associations comprising PET as a bioactive carrier and one of GFR-binding compounds of SEQ ID NO: 11 to 14, 24 to 26 and 51 to 63. A rapid (24 hours) decrease of the tumor markers was observed (FIG. 7). The adhesion checkpoint then activates the tumor suppressor proteins p53 and pRB. […]

Sequence | p-Smad1/5/8 (%) [1] [%] | pRB (%) ([2]; Table 4) | pRB (%) ([2]; Table 5)
VPQALSPISILFIRLKPHQGHLGEMSNMVVR (Non-cyclic GFR-binding peptide) [SEQ ID NO: 85] | 26 | 24 | 24
VPEKMSSLSILFFDENKNAALKVYPNMTVE (Non-cyclic GFR-binding peptide) [SEQ ID NO: 92] | 52 | 8 | 8
RNVQCRPTQLEPLPIVYYEIVRKKPEQLSNTLEDHLA [SEQ ID NO: 66] (Non-cyclic GFR-binding peptide) | 38 | 21 | 21
VPTEESNITTQIMRIKPHQGQHIGEMSFLQH [SEQ ID NO: 69] (Non-cyclic GFR-binding peptide) | 32 | 23 | 23
NDEGLECVPTEERPVQVRKIRIKPHQGQKKATVFLQHNK [SEQ ID NO: 64] (Non-cyclic GFR-binding peptide) | 36 | 14 | 14
VPQALNAISTLYFDDSSNVILKKYRNMAVS (Non-cyclic GFR-binding peptide) [SEQ ID NO: 72] | 48 | 11 | 11
NDEGLECVPTEERPVQVRKIRIKPHQGQKKATVFLQHNK [SEQ ID NO: 79] (Non-cyclic GFR-binding peptide) | 27 | 21 | 21
RNVQCRPTQLEPLPIVYYEIVRKKPEQLSNTLEDHLA [SEQ ID NO: 81] (Non-cyclic GFR-binding peptide) | 41 | 19 | 19
VPTKLSPISILYIDDMGVPTYKQYEEGMSVAE (Non-cyclic GFR-binding peptide) [SEQ ID NO: 67] | 40 | 9 | 9
ASASPSSVPQDLEPLTILYYVGRTPKVEQLSNMVEDH (Non-cyclic GFR-binding peptide) [SEQ ID NO: 80] | 34 | 17 | 17
TPTKMSPINMLYFNEKNNIIYGKIPGM (Non-cyclic GFR-binding peptide) [SEQ ID NO: 94] | 41 | 20 | 20
VPQALSPISILYIDDMGVPTYKQYEEGMSVAE (Non-cyclic GFR-binding peptide) [SEQ ID NO: 68] | 39 | 7 | 7
SRVHHNAISTLYFDESSNVILKKYRGMSVVE (Non-cyclic GFR-binding peptide) [SEQ ID NO: 91] | 56 | 9 | 9
APTQLSAISTLYLEIVRKKPLKNYQEMEDH (Non-cyclic GFR-binding peptide) [SEQ ID NO: 78] | 58 | 20 | 20
VPQALSPINMLYFNEKNQIIYGKIPFLQHNK (Non-cyclic GFR-binding peptide) [SEQ ID NO: 75] | 54 | 8 | 8
VPARLSPISILYIDEMGVPTYKQYEEGMSVAE (Non-cyclic GFR-binding peptide) [SEQ ID NO: 83] | 33 | 9 | 9
VPTELSPISILFIRIKPHQGHLGEMSAAVVE (Non-cyclic GFR-binding peptide) [SEQ ID NO: 70] | 30 | 24 | 24
VPTEESNITTQIMRIKPHQGQHIGEMSFLQH [SEQ ID NO: 84] (Non-cyclic GFR-binding peptide) | 22 | 10 | 10
VPTHHSAISMLYLELGGDKPLENYQFLQ (Non-cyclic GFR-binding peptide) [SEQ ID NO: 97] | 46 | 9 | 9
